Assay: xn = mol fraction of the nth substance listed
Details: 101 kPa, Liquid; for speed of sound: Sing-around technique in a fixed-path interferometer; for mass density: Vibrating tube method

CC(O)CO (centres undefined) [1,2-propanediol] + CCCCn1cc[n+](C)c1.F[B-](F)(F)F
Details | mass density [kg/m3] | speed of sound [m/s]
293.15 K, x2 = 0.0521 | 1056.41 | 1527.9
293.15 K, x2 = 0.1068 | 1074.4 | 1532.7
293.15 K, x2 = 0.2089 | 1101.55 | 1538.5
293.15 K, x2 = 0.3074 | 1122.27 | 1543.9
293.15 K, x2 = 0.4035 | 1139.05 | 1549.8
293.15 K, x2 = 0.5031 | 1153.8 | 1554.6
293.15 K, x2 = 0.5907 | 1164.95 | 1559
293.15 K, x2 = 0.7031 | 1177.42 | 1564.6
293.15 K, x2 = 0.8 | 1187.25 | 1568.6
293.15 K, x2 = 0.8992 | 1196.18 | 1572
298.15 K, x2 = 0.0521 | 1052.69 | 1515.3
298.15 K, x2 = 0.1068 | 1070.64 | 1520
298.15 K, x2 = 0.2089 | 1097.72 | 1526.2
298.15 K, x2 = 0.3074 | 1118.42 | 1531.5
298.15 K, x2 = 0.4035 | 1135.23 | 1537.5
298.15 K, x2 = 0.5031 | 1150.01 | 1542.5
298.15 K, x2 = 0.5907 | 1161.21 | 1547
298.15 K, x2 = 0.7031 | 1173.74 | 1552.6
298.15 K, x2 = 0.8 | 1183.62 | 1556.7
298.15 K, x2 = 0.8992 | 1192.57 | 1560.5
303.15 K, x2 = 0.0521 | 1048.94 | 1502.2
303.15 K, x2 = 0.1068 | 1066.85 | 1507
303.15 K, x2 = 0.2089 | 1093.89 | 1513.8
303.15 K, x2 = 0.3074 | 1114.58 | 1519.2
303.15 K, x2 = 0.4035 | 1131.41 | 1525.3
303.15 K, x2 = 0.5031 | 1146.23 | 1530.3
303.15 K, x2 = 0.5907 | 1157.48 | 1535
303.15 K, x2 = 0.7031 | 1170.07 | 1540.7
303.15 K, x2 = 0.8 | 1180 | 1544.9
303.15 K, x2 = 0.8992 | 1188.99 | 1549
308.15 K, x2 = 0.0521 | 1045.16 | 1488.9
308.15 K, x2 = 0.1068 | 1063.06 | 1494
308.15 K, x2 = 0.2089 | 1090.06 | 1501.1
308.15 K, x2 = 0.3074 | 1110.75 | 1506.8
308.15 K, x2 = 0.4035 | 1127.62 | 1513.1
308.15 K, x2 = 0.5031 | 1142.48 | 1518.2
308.15 K, x2 = 0.5907 | 1153.77 | 1523
308.15 K, x2 = 0.7031 | 1166.42 | 1528.9
308.15 K, x2 = 0.8 | 1176.39 | 1533.2
308.15 K, x2 = 0.8992 | 1185.42 | 1537.5
313.15 K, x2 = 0.0521 | 1041.36 | 1475.6
313.15 K, x2 = 0.1068 | 1059.24 | 1481.1
313.15 K, x2 = 0.2089 | 1086.22 | 1488.5
313.15 K, x2 = 0.3074 | 1106.92 | 1494.5
313.15 K, x2 = 0.4035 | 1123.83 | 1501
313.15 K, x2 = 0.5031 | 1138.74 | 1506.2
313.15 K, x2 = 0.5907 | 1150.08 | 1511.1
313.15 K, x2 = 0.7031 | 1162.79 | –
313.15 K, x2 = 0.8 | 1172.81 | 1521.7
313.15 K, x2 = 0.8992 | 1181.86 | 1526.1
318.15 K, x2 = 0.0521 | 1037.53 | 1462.3
318.15 K, x2 = 0.1068 | 1055.4 | 1468.1
318.15 K, x2 = 0.2089 | 1082.38 | 1476
318.15 K, x2 = 0.3074 | 1103.1 | 1482.3
318.15 K, x2 = 0.4035 | 1120.04 | 1488.9
318.15 K, x2 = 0.5031 | 1135.01 | 1494.3
318.15 K, x2 = 0.5907 | 1146.4 | 1499.4
318.15 K, x2 = 0.7031 | 1159.17 | 1505.6
318.15 K, x2 = 0.8 | 1169.23 | 1510.3
318.15 K, x2 = 0.8992 | 1178.32 | 1515

CCCCn1cc[n+](C)c1.COS(=O)(=O)[O-] [1-butyl-3-methylimidazolium methyl sulfate] + CC(O)CO
Details | mass density [kg/m3] | speed of sound [m/s]
293.15 K, x1 = 0.0574 | 1061.11 | 1541.9
293.15 K, x1 = 0.1155 | 1081.09 | 1554.6
293.15 K, x1 = 0.2102 | 1107.07 | 1573.6
293.15 K, x1 = 0.3133 | 1130.01 | 1591.4
293.15 K, x1 = 0.4151 | 1148.5 | 1602.8
293.15 K, x1 = 0.5038 | 1162.16 | 1613.5
293.15 K, x1 = 0.6026 | 1174.98 | 1626
293.15 K, x1 = 0.6996 | 1185.85 | 1636.8
293.15 K, x1 = 0.8095 | 1196.11 | 1649.4
293.15 K, x1 = 0.9003 | 1204.12 | 1660.2
298.15 K, x1 = 0.0574 | 1057.45 | 1528.2
298.15 K, x1 = 0.1155 | 1077.45 | 1541.1
298.15 K, x1 = 0.2102 | 1103.5 | 1560.2
298.15 K, x1 = 0.3133 | 1126.47 | 1578.4
298.15 K, x1 = 0.4151 | 1145.03 | 1589.9
298.15 K, x1 = 0.5038 | 1158.71 | 1600.8
298.15 K, x1 = 0.6026 | 1171.59 | 1613.1
298.15 K, x1 = 0.6996 | 1182.44 | 1624.2
298.15 K, x1 = 0.8095 | 1192.74 | 1636.8
298.15 K, x1 = 0.9003 | 1200.82 | 1647.5
303.15 K, x1 = 0.0574 | 1053.78 | 1514.5
303.15 K, x1 = 0.1155 | 1073.81 | 1527.5
303.15 K, x1 = 0.2102 | 1099.9 | 1546.9
303.15 K, x1 = 0.3133 | 1122.94 | 1565.2
303.15 K, x1 = 0.4151 | 1141.57 | 1577.1
303.15 K, x1 = 0.5038 | 1155.27 | 1588.2
303.15 K, x1 = 0.6026 | 1168.22 | 1600.5
303.15 K, x1 = 0.6996 | 1179.05 | 1611.8
303.15 K, x1 = 0.8095 | 1189.38 | 1624.5
303.15 K, x1 = 0.9003 | 1197.47 | 1635
308.15 K, x1 = 0.0574 | 1050.08 | 1500.8
308.15 K, x1 = 0.1155 | 1070.14 | 1513.9
308.15 K, x1 = 0.2102 | 1096.3 | 1533.6
308.15 K, x1 = 0.3133 | 1119.41 | 1552.2
308.15 K, x1 = 0.4151 | 1138.1 | 1564.4
308.15 K, x1 = 0.5038 | 1151.85 | 1575.8
308.15 K, x1 = 0.6026 | 1164.85 | 1588.2
308.15 K, x1 = 0.6996 | 1175.66 | 1599.6
308.15 K, x1 = 0.8095 | 1186.03 | 1612.3
308.15 K, x1 = 0.9003 | 1194.14 | 1622.9
313.15 K, x1 = 0.0574 | 1046.36 | 1487.1
313.15 K, x1 = 0.1155 | 1066.46 | 1500.4
313.15 K, x1 = 0.2102 | 1092.68 | 1520.3
313.15 K, x1 = 0.3133 | 1115.88 | 1539.2
313.15 K, x1 = 0.4151 | 1134.64 | 1551.8
313.15 K, x1 = 0.5038 | 1148.44 | 1563.4
313.15 K, x1 = 0.6026 | 1161.48 | 1576
313.15 K, x1 = 0.6996 | 1172.29 | 1587.6
313.15 K, x1 = 0.8095 | 1182.71 | 1600.3
313.15 K, x1 = 0.9003 | 1190.84 | 1610.9
318.15 K, x1 = 0.0574 | 1042.62 | 1473.6
318.15 K, x1 = 0.1155 | 1062.78 | 1487.1
318.15 K, x1 = 0.2102 | 1089.06 | 1507.4
318.15 K, x1 = 0.3133 | 1112.34 | 1526.4
318.15 K, x1 = 0.4151 | 1131.18 | 1539.2
318.15 K, x1 = 0.5038 | 1145.05 | 1551.5
318.15 K, x1 = 0.6026 | 1158.11 | 1563.8
318.15 K, x1 = 0.6996 | 1168.92 | 1576
318.15 K, x1 = 0.8095 | 1179.39 | 1588.5
318.15 K, x1 = 0.9003 | 1187.56 | 1599

From the NIST ThermoML archive (doi:10.1016/j.fluid.2015.12.007)
